Series [1] addresses T1, hirudin (Hirudo medicinalis, UniProt P01050). In words: Reduction of native hirudin by DTT at pH 9.0, 11.0 and 13.5, HPLC analysis. In kind it is biochemical. The conditions noted are these: for rate constant of hirudin reduction: 50 mM DTT, 22° C. As for the experimental part: FIG. 2. […] N-Hirudin (1 mg/ml) was reduced with 50 mM DTT at 22° C. in solutions of pH 9.0, pH 11.0 and pH 13.5. The buffers of pH 9.0 and 11.0 were prepared by the titration of 0.1N NaHC03 and 0.1N NaOH. The samples were quenched at different time points by acidification and analyzed by HPLC using the following conditions. Solvent A for HPLC was water containing 0.1% trifluoroacetic acid. Solvent B was acetonitrile/water (9:1, by volume) containing 0.086% trifluoroacetic acid. The gradient was 27% to 36% solvent B linear in 25 min. The flow rate was 0.5 ml/min. The column was Zorbax 300SB C-18 for peptides and proteins, 4.6 mm, 5 pm. Column temperature was 22° C. N indicates native hirudin.
Reduction of protein disulfide bonds by a reducing agent (such as β-mercaptoethanol, dithiothreitol or tris-carboxyethyl-phosphine) is typically performed at pH 8.0-8.5. […] Hirudin (a 3-disulfide protein) is used as an example here. Native hirudin was incubated with 20 mM, 50 mM or 100 mM of DTT at 22° C. in solutions of pH 9.0, 11.0 and 13.5 respectively. […] Thus, increase of pH from 9.0 to 13.5 accelerates the rate of reduction of hirudin at room temperature by approximately 30-fold. Similar effect of pH was also observed at DTT concentrations of 20 mM and 100 mM.

Series [2] deals with T1, hirudin. In words: Reduction of native hirudin in 1N NaOH, 50 mM DTT with added denaturant (GdnCl or GdnSCN), HPLC analysis. In kind it is biochemical. On the procedure:
FIG. 3. […] N indicates native hirudin.
Denaturant is known to destabilize the conformation of native protein and decrease the covalent stability of disulfide bonds against reduction. In addition to the optimized pH (13.5) for hirudin reduction described above, denaturant (GdnCl and GdnSCN) was included to further accelerate the rate of reduction. Native hirudin (N) was incubated at 22° C. in solutions comprising 1N NaOH, 50 mM DTT and increasing concentrations of GdnCl (0.2M-2M) or GdnSCN (0.1M-I M). […] In the presence of 1M of GdnSCN, the reduction of hirudin completes within one minute.

The conditions of series [3]: cited from earlier work.

Like-named read-outs stand apart in the source and are kept apart here.

T1 sequence (P01050 whole entry, looked up): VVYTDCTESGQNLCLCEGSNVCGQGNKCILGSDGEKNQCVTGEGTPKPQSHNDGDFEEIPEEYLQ

`O[C@H](CS)[C@H](O)CS` (racemic) [DTT, dithiothreitol]: the figures for the “rate constant of hirudin reduction” value on hirudin [1] (pH 9.0) and on hirudin [1] (pH 11.0) were 0.00377 min⁻¹ and 0.0235 min⁻¹, respectively. Moreover, on hirudin [1] (increase of pH from 9.0 to 13.5, room temperature), the “acceleration of the rate of reduction of hirudin” value is on record as “approximately 30 fold”.

Consider `Cl.N=C(N)N` [GdnCl, guanidinium chloride], for which the “potency of 6M GdnCl relative to 1M GdnSCN” value at hirudin [2] (6M GdnCl versus 1M GdnSCN) is “about 3 fold”. For the same molecule, the “potency relative to GdnSCN” value on hirudin [2] (acceleration of hirudin reduction in 1N NaOH, 50 mM DTT) was “approximately 50%”.

In the case of `N#CS.N=C(N)N` [GdnSCN, guanidine thiocyanate], the “time to complete reduction of hirudin” value on hirudin [2] (1M GdnSCN in 1N NaOH, 50 mM DTT, 22° C.) is reported as “one”. In addition, the “further acceleration of the reduction of hirudin” value on hirudin [2] (inclusion of 0.2M GdnSCN in 1N NaOH, 50 mM DTT, 22° C.) was found to be 2.5 fold; on hirudin [2] (inclusion of 0.5M GdnSCN in 1N NaOH, 50 mM DTT, 22° C.), 5 fold.

Regarding hirudin, the results for the “hirudin in a denatured state” value in series [3] (6 M GdnCl) and in series [3] (8 M urea) were 67% and 14%, respectively.

(Values after patent publication US20080131500A1, “METHODS AND COMPOSITIONS FOR RAPID INACTIVATION OF PROTEINS” (The Board of Regents of The University of Texas System, priority 2006, published 2008).)
